Test results from US10758549B2, “Compositions of obeticholic acid and methods of use” (Intercept Pharmaceuticals, Inc., priority 2015, dated 2020).

Experiments:
pKa = assay type: physicochemical
[1] = tested on: subjects with primary biliary cirrhosis; experiment: Example 8: OCA in combination with UDCA in subjects with primary biliary cirrhosis; assay type: in vivo, human
Protocol: This example describes a study conducted using an international, multi-center, randomized, double-blind, placebo-controlled, multi-dose, parallel group to determine efficacy and safety of obeticholic acid (OCA) in combination with ursodeoxycholic acid (UDCA) in subjects with primary biliary cirrhosis.
Key Exclusion criteria • Use of colchicine, methotrexate, azathioprine, or systemic corticosteroids • Screening conjugated (direct) bilirubin>2×ULN; ALT or AST>5×ULN; serum creatinine>1.5 mg/dL (133 μmol/L) • History or presence of hepatic decompensation (e.g., variceal bleeds, encephalopathy, or poorly controlled ascites) • History or presence of other concomitant liver diseases or human immunodeficiency virus (HIV) or other viral hepatitis infection • Clinically significant medical condition, and gastrointestinal conditions affecting drug ADME
The percent change (%) in serum ALP from Baseline to End of Study (EOS) was tested where [EOS=Day 85 or last observed ALP value on treatment]
Also observed were the absolute and percent changes in serum ALP levels from Baseline to Day 15, Day 29, Day 57, Day 85/ET and Follow-Up (Day 99). Patients were examined for the absolute and percent change in serum gamma-glutamyl transferase (GGT), alanine aminotransferase (ALT), and aspartate aminotransferase (AST) values from Baseline to Day 15, Day 29, Day 57, Day 85/ET and Follow-Up (Day 99). Patients were examined for absolute and percent changes in serum albumin and conjugated (direct) bilirubin values from Baseline to Day 15, Day 29, Day 57, Day 85/ET and Follow-Up (Day 99). Patients' Enhanced liver fibrosis (ELF) score and change in levels of its components, hyaluronic acid, aminoterminal peptide of pro-collagen III, and tissue inhibitor of matrix metalloproteinase-1 from Baseline to Day 85/ET were performed. The absolute and percent changes in levels of C-reactive protein, non-esterified fatty acid, tumor necrosis factor alpha, tumor necrosis factor beta, tumor growth factor beta, bile acids, glutathione, immunoglobulin M, and osteopontin from Baseline to Day 85/ET were taken.
Overall, 165 subjects (100%) received at least 1 dose of investigational product (ITT and Safety Populations) and 136 subjects comprised the Completer Population. One hundred sixty-one subjects (98%) were included for the analysis of the mITT Population as measured by the percent change in ALP from Baseline to EOS; the mITT Population for sensitivity analysis of the primary endpoint included 163 subjects. It should be noted that the mITT population was defined for the primary analysis as all patients randomized who received at least one dose of study medication and had at least one post-baseline ALP evaluation which was taken at most seven days after their last dose of study medication. (See FIG. 10). The mITT Population for the sensitivity analysis included ALP assessments obtained up to 15 days after the last investigational product use (unlike 7 days for primary endpoint). The number of subjects was balanced across all groups in all analysis populations with the exception of the Completer Population due to the higher proportion of discontinuations with OCA 50 mg.

PBC patients = experiment: Example 7: 12-week placebo-controlled OCA monotherapy study (10 mg, 50 mg) in PBC; assay type: in vivo, human; conditions: for ALP Change from Baseline to Day 85/ET, Mean / ALP Level at Day 85/ET, Mean / ALP Level at Day 85/ET, Median / Percent Change in ALP from Baseline to EOS, Mean (SD) / Percent Change in ALP from Baseline to EOS, Median / GGT level at Day 85/ET, mean (SD): ITT
Protocol: This example describes a study of two doses of OCA (10 mg and 50 mg) vs. placebo for a period of 12 weeks (85 days). The study was completed by 48 patients and PK data are available for 34 patients. All patients returned to the study site for 4 visits (Day 15, Day 29, Day 57, and Day 85) for evaluations of efficacy, safety, tolerability, and compliance with investigational product.
Key Exclusion Criteria • 1. The following drugs were contraindicated: ursodeoxycholic acid (UDCA), colchicine, methotrexate, azathioprine, or systemic corticosteroids • 2. Conjugated bilirubin>2×ULN; ALT or AST>5×ULN and serum creatinine>133 μmol/L (1.5 mg/dL) • 3. History or presence of hepatic decompensation • 4. History of presence of concomitant liver diseases such as Hepatitis B or C; HIV; primary sclerosing cholangitis, alcoholic liver disease, definite autoimmune liver disease or biopsy proven nonalcoholic steatohepatitis (NASH).
The percent change (%) in serum ALP from Baseline to End of Study (EOS) was monitored. The baseline value was the mean of the pretreatment screening and day 0 evaluations. The EOS value was Day 85/ET or the last observed ALP value on treatment.
Absolute changes in serum ALP levels were monitored from Baseline to Day 15, Day 29, Day 57, Day 85/ET and Follow-Up (Day 99). The percentage of patients was calculated who met the definition of PBC responder criteria applying the Paris I, Toronto I, Toronto II, Toronto III, Toronto IV, Mayo II, and Barcelona disease prognostic risk criteria at Day 85/ET. Each patient was tested for absolute and percent change in serum aspartate aminotransferase (AST), alanine aminotransferase (ALT), gamma-glutamyl transferase (GGT), and conjugated (direct) bilirubin values from Baseline to Day 15, Day 29, Day 57, Day 85/ET and Follow-Up (Day 99).

[2] = OCA 10 mg + UDCA, Completer (n = 32)
[3] = OCA 25 mg + UDCA, Completer (n = 42)
[4] = OCA 50 mg + UDCA, Completer (n = 25)

## CC[C@H]1[C@@H](O)[C@@H]2[C@H](CC[C@]3(C)[C@@H]([C@H](C)CCC(=O)O)CC[C@@H]23)[C@@]2(C)CC[C@@H](O)C[C@@H]12 [OCA, 3α,7α-dihydroxy-6α-ethyl-5β-cholan-24-oic acid]
pKa
  pKa: 4.82
[1]; [2]
  ALP Mean Change, Baseline to Day 85/ET: −86.3 U/L
  ALP Mean Percent Change, Baseline to Day 85/ET: −26.7%
  ALP Median Change, Baseline to Day 85/ET: −61.3 U/L
  ALP Median Percent Change, Baseline to Day 85/ET: −23.5%
  ALP at Day 85/ET, Mean: 212.3 U/L
  ALP at Day 85/ET, Median: 175.0 U/L
[1]; OCA 10 mg + UDCA, ITT (n = 38)
  ALP Mean Change, Baseline to Day 85/ET: −75.4 U/L
  ALP Mean Percent Change, Baseline to Day 85/ET: −23.3%
  ALP Median Change, Baseline to Day 85/ET: −47.5 U/L
  ALP Median Percent Change, Baseline to Day 85/ET: −21.0%
  ALP at Day 85/ET, Mean: 219.0 U/L
  ALP at Day 85/ET, Median: 177.5 U/L
[1]; [3]
  ALP Mean Change, Baseline to Day 85/ET: −76.0 U/L
  ALP Mean Percent Change, Baseline to Day 85/ET: −26.6%
  ALP Median Change, Baseline to Day 85/ET: −71.3 U/L
  ALP Median Percent Change, Baseline to Day 85/ET: −28.2%
  ALP at Day 85/ET, Mean: 199.0 U/L
  ALP at Day 85/ET, Median: 187.5 U/L
[1]; OCA 25 mg + UDCA, ITT (n = 48)
  ALP Mean Change, Baseline to Day 85/ET: −65.0 U/L
  ALP Mean Percent Change, Baseline to Day 85/ET: −24.0%
  ALP Median Change, Baseline to Day 85/ET: −69.3 U/L
  ALP Median Percent Change, Baseline to Day 85/ET: −27.8%
  ALP at Day 85/ET, Mean: 225.0 U/L
  ALP at Day 85/ET, Median: 187.5 U/L
[1]; [4]
  ALP Mean Change, Baseline to Day 85/ET: −101.8 U/L
  ALP Mean Percent Change, Baseline to Day 85/ET: −32.5%
  ALP Median Change, Baseline to Day 85/ET: −76.0 U/L
  ALP Median Percent Change, Baseline to Day 85/ET: −33.9%
  ALP at Day 85/ET, Mean: 179.1 U/L
  ALP at Day 85/ET, Median: 158.5 U/L
[1]; OCA 50 mg + UDCA, ITT (n = 41)
  ALP Mean Change, Baseline to Day 85/ET: −62.9 U/L
  ALP Mean Percent Change, Baseline to Day 85/ET: −20.0%
  ALP Median Change, Baseline to Day 85/ET: −56.5 U/L
  ALP Median Percent Change, Baseline to Day 85/ET: −22.7%
  ALP at Day 85/ET, Mean: 227.9 U/L
  ALP at Day 85/ET, Median: 197.0 U/L
PBC patients; OCA 10 mg
  mean change in LDL-C at Day 85/ET: +0.10 (0.58) mmol/L
PBC patients; OCA 10 mg (n = 20)
  ALP Change from Baseline to Day 85/ET, Mean: −233.5 U/L
  ALP Level at Day 85/ET, Mean: 228.1 U/L
  ALP Level at Day 85/ET, Median: 196.5 U/L
  Percent Change in ALP from Baseline to EOS, Mean (SD): −44.5 (24.4) %
  Percent Change in ALP from Baseline to EOS, Median: −53.9%
PBC patients; OCA 10 mg, baseline 653 (370) U/L
  GGT level at Day 85/ET, mean (SD): 184 (203) U/L
PBC patients; OCA 10 mg, baseline 1.73 (0.45) mmol/L
  HDL-C at end of treatment (ET), mean (SD): 1.57 (0.46) mmol/L
PBC patients; OCA 10 mg, baseline 67 (33) U/L
  AST level at Day 85/ET, mean (SD): 54 (40) U/L
PBC patients; OCA 10 mg, baseline 86 (44) U/L
  ALT level at Day 85/ET, mean (SD): 54 (41) U/L
PBC patients; OCA 50 mg
  mean change in LDL-C at Day 85/ET: +0.23 (0.52) mmol/L
PBC patients; OCA 50 mg (n = 16)
  ALP Change from Baseline to Day 85/ET, Mean: −161.3 U/L
  ALP Level at Day 85/ET, Mean: 269.8 U/L
  ALP Level at Day 85/ET, Median: 197.5 U/L
  Percent Change in ALP from Baseline to EOS, Mean (SD): −37.6 (21.0) %
  Percent Change in ALP from Baseline to EOS, Median: −37.2%
PBC patients; OCA 50 mg, baseline 455 (418) U/L
  GGT level at Day 85/ET, mean (SD): 202 (300) U/L
PBC patients; OCA 50 mg, baseline 1.95 (0.55) mmol/L
  HDL-C at end of treatment (ET), mean (SD): 1.86 (0.56) mmol/L
PBC patients; OCA 50 mg, baseline 66 (29) U/L
  AST level at Day 85/ET, mean (SD): 56 (28) U/L
PBC patients; OCA 50 mg, baseline 71 (38) U/L
  ALT level at Day 85/ET, mean (SD): 49 (29) U/L
PBC patients; OCA 50 mg, early in treatment (<1 month)
  dropout rate: 44%
PBC patients; each OCA dose (10 mg and 50 mg monotherapy), early stage PBC
  ALP reduction, on average: approximately 40%
